Literature values as cited in PubChem BioAssay AID977608.

Molecular target: Cruzipain (Trypanosoma cruzi) (UniProt P25779)
Test: protein-ligand inhibition affinities from structures – PDB-derived complexes (AID 977608)
Conditions: literature IC50, protein: cruzain, chain 3I06_A, PDB entry 3I06

IC50: 0.2 nM
SMILES: CCn1cnc2c(Nc3cc(F)cc(F)c3)nc(C=N)nc21
